Where “and” joins values, the source holds several entries; their conditions need not be identical. Equal values may be shown once. Read-outs that look alike come from different tables or passages of the source.
Key:
[1] = test system: Bacillus subtilis 1904-E; test: Bacterial growth inhibition assay (microdilution, OD 560 nm), MIC; type: cell-based; settings: read-out: B. subtilis MIC
Experimental: (§1) The in vitro antibacterial activities of the synthesized compounds were examined against E. coli and B. subtilis. Bacteria were incubated in culture media with varying concentrations of the examined compound and the antibacterial properties were determined by observation of the optical density at 560 nm (bacteriostatic activity) and by the Resazurin cell viability assay (bactericidal activity). The corresponding minimal bactericidal concentration (MBC) and minimum inhibitory concentration (MIC) values that were obtained are summarized in Table 1 (please refer to Table S1 for MIC and MBC values in μM). Two bacterial strains were used in the antibacterial assays: Escherichia coli DH5α as a Gram-negative model and Bacillus subtilis 1904-E as a Gram-positive model. Both bacterial strains were donated to our laboratory and can be provided on request by contacting the corresponding authors. Both bacterial strains were incubated at 37 °C and the pre-inoculum incubation time was of 24 h. Liquid Luria-Bertani (LB) medium was used for E. coli DH5α and nutrient broth (NB) for B. subtilis. The bacteria cell bank suspensions were thawed and inoculated in the appropriate liquid broth for 24 h at 37 °C with mild agitation. A dilution from these culture solutions was used for the following tests, corresponding to an inoculum of 1 × 10^7 CFU/mL. Stock solutions of all the tested compounds were prepared in DMSO at a concentration of 100 mg/mL, aliquoted, and stored at −20 °C. (A) Bacterial growth inhibition assay: Conditions here described are for testing 6 different concentrations of the compounds, with triplicates of each condition. Therefore, 4 compounds were tested per plate. An adapted version of the microdilution method was used. Firstly, the imidazole derivatives were dissolved in the corresponding broth at 2× the highest tested concentration. Then, 100 μL of the 2× solutions were added to the first (A) and second (B) row wells of a 96-well plate. In addition, 100 μL of liquid medium had been previously added to rows B to F. Subsequent dilutions at 1:2 are prepared in rows B to F, by withdrawal of 100 μL from the previous row (more concentrated) to the next row (half diluted), mixing well. Then, 100 μL were discarded from the last row (F). By now, there are 100 μL in each well, and 100 μL of bacterial suspension at 10^7 CFU/mL were added to each well. Then, the 96-well plates were incubated for 24 h at 37 °C under mild agitation. Bacterial growth was controlled both by visual observation of the turbidity in each well and by measuring the optical density (OD) at 560 nm at time 0 h and 24 h. Results are recorded as the lowest concentration of antimicrobial agent that inhibits visible growth of the bacteria, and were compared with the OD variation of a control culture containing E. coli or B. subtilis (+ control) and of solution of the tested compounds without bacteria (- control).

[2] = test system: Escherichia coli DH5α; test: as above; type: cell-based; settings: read-out: E. coli MIC
Experimental: as §1

[3] = test system: HEK-293 cells; test: Cell proliferation assay for cytotoxicity (MTT); type: cell-based, human; settings: 2 days of incubation
Experimental: Human embryonic kidney cells, HEK-293, were chosen as a cell model to evaluate the cytotoxicity of the compounds. The HEK-293 cells were incubated in the cell culture medium with varying concentrations of the examined compound and the impact of treatment was measured using the MTT cell viability assay.
Cell culture media for cytotoxicity studies were purchased from Gibco (Grand Island, NY, USA). Fetal bovine serum (FBS) was obtained from HyClone (UT, USA). Supplements and other chemicals not listed in this section were obtained from Sigma Chemical Co. (St. Louis, MO, USA). Plastics for cell culture were supplied by Thermo Scientific BioLite (Madrid, Spain). All tested compounds were dissolved in DMSO at a concentration of 10 mM and stored at −20 °C until use. HEK-293 cell lines were maintained in Dulbecco’s modified Eagle’s medium (DMEM) containing glucose (1 g/L), glutamine (2 mM), penicillin (50 μg/mL), streptomycin (50 μg/mL), and amphotericin B (1.25 μg/mL) supplemented with 10% FBS.
In 96-well plates, 3 × 10^3 HEK-293 cells per well were seeded and incubated with serial dilutions of the tested compounds (from 200 to 0.2 μM) to a total volume of 100 μL of their growth media. The 3-(4,5-dimethylthiazol-2-yl)-2,5-diphenyltetrazolium bromide (MTT; Sigma Chemical Co.) dye reduction assay in 96-well microplates was used, as previously described. After 2 days of incubation (37 °C, 5% CO2 in a humid atmosphere), 10 μL of MTT (5 mg/mL in phosphate-buffered saline, PBS) was added to each well, and the plate was incubated for a further 3 h (37 °C). The supernatant was discarded and replaced by 100 µL of DMSO to dissolve formazan crystals. The absorbance was then read at 540 nm by Multiskan^TM FC microplate reader. For all concentrations of compound, cell viability was expressed as the percentage of the ratio between the mean absorbance of treated cells and the mean absorbance of untreated cells. Three independent experiments were performed, and the IC50 values (i.e., concentration half inhibiting cell proliferation) were graphically determined using GraphPad Prism 4 software.

[4] = 24 h, 37 °C, nutrient broth, minimum of three experiments
[5] = 24 h, 37 °C, LB medium, minimum of three experiments
[6] = mode of at least three experiments

MIC [1, 4]	MIC ([1]; 24 h, mode of at least three experiments)	MIC [2, 5]	MIC [2, 6]	MIC [1, 6]	SMILES	IC50 ([3]; Homo sapiens, HEK293, 48 h)	IC50 [3]
> 1000 µg/mL	2590 µM	> 2000 µg/mL	> 5000 µM	–	CCCCNC(=O)[C@H](C(C)C)n1cc[n+](Cc2ccccc2)c1 [Compound 2b]	> 79 µg/mL	–
16 µg/mL	–	1000 µg/mL	2660 µM	42 µM	CCCCCCCCCCCCNC(=O)[C@H](Cc1ccccc1)n1ccnc1 [Compound 3a]	19 µM and 7.3 µg/mL	< 36 µM
4 µg/mL	–	32 µg/mL	57 µM	7 µM	CCCCCCCCCCCCNC(=O)[C@H](Cc1ccccc1)n1cc[n+](Cc2ccccc2)c1 [Compound 3b]	109 µM and 61 µg/mL	–
128 µg/mL	–	1000 µg/mL	1440 µM	180 µM	CCCCNC(=O)[C@H](C(C)C)n1cc[n+](Cc2cccc(C[n+]3ccn([C@@H](C(=O)NCCCC)C(C)C)c3)c2)c1 [Compound 2c]	> 142 µg/mL	–
64 µg/mL	–	2000 µg/mL	1990 µM	62 µM	CCCCCCCCCCCCNC(=O)[C@@H](Cc1ccccc1)n1cc[n+](Cc2cccc(C[n+]3ccn([C@@H](Cc4ccccc4)C(=O)NCCCCCCCCCCCC)c3)c2)c1 [Compound 3c]	36 µM and 37 µg/mL	< 36 µM
> 2000 µg/mL	–	> 2000 µg/mL	> 9000 µM	> 9000 µM	CCCCNC(=O)[C@H](C(C)C)n1ccnc1 [Compound 2a]	> 45 µg/mL	–

The remaining lines, values behind:

SMILES	MIC [1, 4]	MIC ([1]; 24 h, mode of at least three experiments)	MIC [2, 5]	MIC [2, 6]	MIC [1, 6]	IC50 ([3]; Homo sapiens, HEK293, 48 h)	IC50 [3]
CCCCCCCCCCCCNC(=O)[C@H](C(C)C)n1cc[n+](Cc2ccccc2)c1 [Compound 1b]	4 µg/mL	–	128 µg/mL	288 µM	9 µM	1.8 µM and 0.8 µg/mL	–
CCCCCCCCCCCCNC(=O)[C@H](C(C)C)n1ccnc1 [Compound 1a]	16 µg/mL	–	> 2000 µg/mL	> 6000 µM	48 µM	9.6 µM and 3.2 µg/mL	–
CCCCCCCCCCCCNC(=O)[C@H](C(C)C)n1cc[n+](Cc2cccc(C[n+]3ccn([C@@H](C(=O)NCCCCCCCCCCCC)C(C)C)c3)c2)c1 [Compound 1c]	16 µg/mL	–	256 µg/mL	269 µM	19 µM	19 µM and 18 µg/mL	–

Source: PMC7767166, “Imidazole and Imidazolium Antibacterial Drugs Derived from Amino Acids” (Pharmaceuticals, 2020)
